# Like-named read-outs stand apart in the source and are kept apart here.
# What was measured:
# [1] = system: Panc02 cells pancreatic tumor; test: Orthotopic Panc02 pancreatic tumor, tumor size by T2-weighted MRI; format: in vivo, C57BL/6J mouse; conditions: fifteenth day, 14 days of treatment; group regimens; FIG. 3
# Experimental: (§1) According to the requirements of Institutional Animal Care and Use Committee (IACUC) of Dong Hwa University, C57BL/6J mice were feed in the experimental animal center of Dong Hwa University until 8 to 10 weeks old. Then, the stably constructed Panc02 cells transfected by Luc-eGFP were in-situ injected into the mice pancreases (1×10^6 cells/0.02 ml/mouse). Thereafter, the tumor sizes of mice pancreases were analyzed through the animal imaging results, and the mice were equally divided into nine group depending on their tumor sizes and treated by the following conditions for three to four weeks:
# (1) “Control (Ctl.)” group (5 mice): untreated, only orally administering vehicle (containing none of the compound of the present invention and other anticancer medicaments) every day. […]
# The stably constructed Panc02 cells transfected by Luc-eGFP were in-situ injected into the mice of each group of Example 4-1, and after determining the growth of in-situ pancreatic tumor, the medicament treatments were conducted for 14 days (i.e., the fifteenth day). In this duration, the pancreatic tumors of mice in each group were analyzed and observed by T2-weighted MRI and taken pictures for records. The tumor (a portion circled by a dotted line) sizes of mice of each group in FIG. 2 were analyzed by amide software.
# [2] = system: PD-L1 protein; test: Western Blotting of pancreatic tumor tissue, PD-L1; format: in vivo, C57BL/6J mouse; conditions: FIG. 6, group regimens
# Experimental: as §1
# (§2) After accomplishing the observations of Examples 4-2 to 4-3, the mice in each group were sacrificed and the tissues of pancreatic tumor thereof were collected to extracting proteins. Then, the expressions of CD44 protein, CD44ICD protein, PD-1 protein, PD-L1 protein, p-Akt protein, and Akt protein in the protein sample of each group were detected by Western Blotting. Furthermore, the expression of GAPDH protein serves as an internal control.
# [3] = system: Mia-PaCa2 cells; test: MTT cell viability analysis, single agents, Mia-PaCa2; format: cell-based, human
# Experimental: (§3) In this example, the effects of the compound of the present invention and different anticancer medicaments on killing cancer cells were studied by MTT (Thiazolyl Blue tetrazolium bromide, 3-[4,5-dimethylthiahiazo-2-yl]-[…] bromide) cell viability analysis.
# (§4) Thereafter, each of the aforesaid cell lines was cultured with cell medium containing gemcitabine, cisplatin, 5-fluorouracil, irinotecan, oxaliplatin, paclitaxel, (Z)-n-butylidenephthalide, (E)-n-butylidenephthalide, 2-pentanolybenzoic acid, sodium 2-pentanoylbenzoate, and butylphthalide, for 24 hours, 48 hours and 72 hours, respectively.
# [4] = system: PANC-1 cells; test: MTT cell viability analysis, single agents, PANC-1; format: cell-based, human
# Experimental: as §3, §4
# [5] = system: PD-1 protein; test: Western Blotting of pancreatic tumor tissue, PD-1; format: in vivo, C57BL/6J mouse; conditions: FIG. 6, group regimens
# Experimental: as §1, §2
# [6] = system: AsPC-1 cells; test: MTT cell viability analysis, single agents, AsPC-1; format: cell-based, human
# Experimental: as §3, §4
# [7] = system: Panc02 cells pancreatic tumor; test: Survival of mice with orthotopic Panc02 pancreatic cancer; format: in vivo, C57BL/6J mouse; conditions: for Fold (as compared to Ctl. group): survival
# Experimental: as §1
# (1) “Control (Ctl.)” group (5 mice): untreated, only orally administering vehicle (containing none of the compound of the present invention and other anticancer medicaments) every day.
# (2) “LD” group (5 mice): orally administering a low dose (12.5 mg/kg body weight) of (Z)-n-butylidenephthalide every day.
# (3) “HD” group (5 mice): orally administering a high dose (25 mg/kg body weight) of (Z)-n-butylidenephthalide every day.
# (4) “Gem” group (5 mice): intraperitoneally injecting 100 mg/kg body weight of gemcitabine (GEM) per three days.
# (5) “LD+Gem” group (5 mice): orally administering 12.5 mg/kg body weight of (Z)-n-butylidenephthalide every day, and intraperitoneally injecting 50 mg/kg body weight of gemcitabine (GEM) per three days.
# (6) “TS-1” group (5 mice): after orally administering 100 mg/kg body weight of TS-1 every day for five continuous days, stopping the oral administration of TS-1 for two days.
# According to the method of Example 4-1, the pancreatic cancer mice were established and the survivals of mice in each group were observed and recorded every day. The results are shown in Table 15 and FIG. 5A to FIG. 5D.
# [8] = system: Panc02 cells; test: MTT cell viability analysis, single agents, Panc02; format: cell-based, mouse
# Experimental: as §3, §4
# [9] = system: HT-29 cell; test: MTT cell viability analysis, single agents, HT-29; format: cell-based; conditions: Homo sapiens, cultured 24, 48 and 72 hours (time of IC50 not given), read-out: IC50
# Experimental: as §3
# (§5) Thereafter, each of the aforesaid cell lines were cultured with cell medium containing 5-fluorouracil, (Z)-n-butylidenephthalide, and 2-pentanolybenzoic acid for 24 hours, 48 hours and 72 hours.
# [10] = system: PD-L1 protein; test: Western Blotting of treated Panc02 cells, PD-L1; format: cell-based, mouse; conditions: 37.5 and 75 μg/ml, 3 and 6 hours, FIG. 1
# Experimental: (§6) The Panc02 cells (pancreatic cancer cell line) were cultured with 37.5 and 75 μg/ml of (Z)-n-butylidenephthalide for 6 hours (a portion of cells were harvested after culturing for 3 hours), respectively. Thereafter, proteins of the cells were extracted, and the expressions of CD44 intracellular domain (CD44ICD) protein and PD-L1 protein in the cancer cells treated with (Z)-n-butylidenephthalide were measured by Western Blotting. Furthermore, the expression of GAPDH protein was measured as an internal control.
# [11] = system: CD44ICD protein; test: Western Blotting of treated Panc02 cells, CD44ICD; format: cell-based, mouse; conditions: FIG. 1
# Experimental: as §6
# [12] = system: HepG2 cell; test: MTT cell viability analysis, single agents, HepG2; format: cell-based; conditions: Homo sapiens, cultured 24, 48 and 72 hours (time of IC50 not given), read-out: IC50
# Experimental: as §3, §5
# [13] = system: A549 cell; test: MTT cell viability analysis, single agents, A549; format: cell-based; conditions: Homo sapiens, cultured 24, 48 and 72 hours (time of IC50 not given), read-out: IC50
# Experimental: as §3, §5
# [14] = system: DBTRG-05MG cell; test: MTT cell viability analysis, single agents, DBTRG-05MG; format: cell-based; conditions: Homo sapiens, cultured 24, 48 and 72 hours (time of IC50 not given), read-out: IC50
# Experimental: as §3, §5
# [15] = Homo sapiens, MIA PaCa-2, Mia-PaCa2, MTT, cultured 24, 48 and 72 hours (time of IC50 not given), read-out: IC50
# [16] = Homo sapiens, MTT, cultured 24, 48 and 72 hours (time of IC50 not given), read-out: IC50
# [17] = Homo sapiens, ASPC1, AsPC-1, MTT, cultured 24, 48 and 72 hours (time of IC50 not given), read-out: IC50
# [18] = Gem group: 100 mg/kg intraperitoneally per three days
# [19] = Mus musculus, MTT, cultured 24, 48 and 72 hours (time of IC50 not given), read-out: IC50
# [20] = Mia-PaCa2, MTT, cultured 24, 48 and 72 hours (time of IC50 not given)
# [21] = MTT, cultured 24, 48 and 72 hours (time of IC50 not given)
# [22] = AsPC-1, MTT, cultured 24, 48 and 72 hours (time of IC50 not given)
# [23] = HD group: 25 mg/kg orally every day
# [24] = LD group: 12.5 mg/kg orally every day
smiles,measurement,setting,value
"Nc1ccn([C@@H]2O[C@H](CO)[C@@H](O)C2(F)F)c(=O)n1 [gemcitabine, Gemcitabine]",tumor size (T2-weighted MRI),[1],bigger than that of untreated “Control” group
same,expression of PD-L1 protein in pancreatic tumor tissue,[2],more than that of the untreated “Control” group
same,IC50,[3]; [15],0.85 ± 0.36 µg/mL
same,IC50,[4]; [16],1.53 ± 0.3 µg/mL
same,expression of PD-1 protein in pancreatic tumor tissue,[5],more than that of the untreated “Control” group
same,IC50,[6]; [17],6.56 ± 0.82 µg/mL
same,Average of overall survival,[7]; [18],31.7 ± 1.023 days
same,Median of overall survival,[7]; [18],30 days
same,Fold (as compared to Ctl. group),[7]; [18],1.8
same,IC50,[8]; [19],0.00377 µg/mL
"CCCCC1OC(=O)c2ccccc21 (stereo not shown) [butylphthalide, Butylphthalide]",IC50,[3]; [20],198.9 ± 7.69 µg/mL
same,IC50,[4]; [21],>200 µg/mL
same,IC50,[6]; [22],>300 µg/mL
"O=C1[O][Pt]2([NH][C@@H]3CCCC[C@H]3[NH]2)[O]C1=O [oxaliplatin, Oxaliplatin]",IC50,[3]; [20],21.81 ± 1.60 µg/mL
same,IC50,[4]; [21],18.79 ± 1.35 µg/mL
same,IC50,[6]; [22],42.60 ± 7.61 µg/mL
same,IC50,[8]; [21],8.43 ± 0.83 µg/mL
"CCc1c2c(nc3ccc(OC(=O)N4CCC(N5CCCCC5)CC4)cc13)-c1cc3c(c(=O)n1C2)COC(=O)[C@]3(O)CC [irinotecan, Irinotecan]",IC50,[3]; [15],21.7 ± 0.82 µg/mL
same,IC50,[4]; [16],38.5 ± 1.08 µg/mL
same,IC50,[6]; [17],54.4 ± 2.13 µg/mL
same,IC50,[8]; [19],69.5 ± 1.01 µg/mL
"CCCCC(=O)c1ccccc1C(=O)[O-].[Na+] [sodium 2-pentanoylbenzoate, Sodium 2-pentanoylbenzoate]",IC50,[3]; [15],469 ± 18.6 µg/mL
same,IC50,[4]; [16],687 ± 27.1 µg/mL
same,IC50,[6]; [17],624 ± 49.6 µg/mL
same,IC50,[8]; [19],750 ± 28.7 µg/mL
CCC/C=C1\OC(=O)c2ccccc21 [(Z)-n-butylidenephthalide],IC50,[9],52.9 ± 0.01 µg/mL
same,IC50,"[3]; Homo sapiens, MIA PaCa-2",55.9 ± 1.35 µg/mL
same,expression of PD-L1 protein,[10],decreased as the concentration of (Z)-n-butylidenephthalide was increased
same,IC50,[4]; Homo sapiens,41.2 ± 2.81 µg/mL
same,IC50,"[6]; Homo sapiens, ASPC1",83.3 ± 2.56 µg/mL
same,expression of CD44ICD protein,"[11]; 37.5 and 75 μg/ml, 3 and 6 hours",decreased as the concentration of (Z)-n-butylidenephthalide was increased
same,expression of CD44ICD protein at 6 hours,[11]; 6 hours,completely inhibited
same,IC50,[12],81.1 ± 0.02 µg/mL
same,IC50,[13],63.6 ± 0.06 µg/mL
same,IC50,[14],133 µg/mL
same,Average of overall survival,[7]; [23],27.2 ± 0.533 days
same,Median of overall survival,[7]; [23],27 days
same,Average of overall survival,[7]; [24],30.6 ± 2.205 days
same,Median of overall survival,[7]; [24],30 days
same,survival days compared to Control group and TS-1 group,[7]; [24],more than that of “Control” group
same,Fold (as compared to Ctl. group),[7]; [23],1.6
same,Fold (as compared to Ctl. group),[7]; [24],1.8
same,IC50,[8]; Mus musculus,32.9 ± 2.33 µg/mL

# — patent US20230092846A1, “COMBINATION FOR THE TREATMENT OF CANCER AND APPLICATION THEREOF” (EVERFRONT BIOTECH INC., priority 2020, published 2023)
